The source of these data is patent publication US8288371B2, “Ortho pyrrolidine, benzyl-substituted heterocycle CCR1 antagonists for autoimmune diseases and inflammation” (Pharmacopeia, LLC, priority 2007, dated 2012).

Some results are limits rather than exact numbers.

This test has as its target T1, human CCR1 (Homo sapiens, UniProt P32246).
T1 sequence (P32246 1-355): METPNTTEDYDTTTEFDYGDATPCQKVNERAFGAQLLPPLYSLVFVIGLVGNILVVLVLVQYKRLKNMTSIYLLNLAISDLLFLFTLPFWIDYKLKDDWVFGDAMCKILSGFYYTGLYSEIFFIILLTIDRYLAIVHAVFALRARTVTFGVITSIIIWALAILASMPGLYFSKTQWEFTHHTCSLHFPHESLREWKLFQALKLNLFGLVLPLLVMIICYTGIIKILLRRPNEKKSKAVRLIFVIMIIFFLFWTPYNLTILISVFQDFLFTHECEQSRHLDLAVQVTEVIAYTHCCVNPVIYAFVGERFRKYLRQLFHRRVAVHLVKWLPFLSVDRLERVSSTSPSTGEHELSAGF
Put plainly: CCR1 binding protocol (SPA, [125I]-MIP-1α displacement). As to conditions: cell membrane expressing human CCR1, 0.1 nM [125I]-MIP-1α, 4 hours at ambient temperature; read-out: Relative potency (IC50). The gist of the method: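 Human CCR1 membranes (0.5 μg/well) on SPA beads were incubated with compound and 0.1 nM [125I]-MIP-1α (final) for 4 h at ambient temperature. Buffer was Tris pH 7.4 with NaCl, KCl, MnCl and 0.1% BSA. IC50 came from ½-log compound dilutions (10 mM top DMSO stock) by displacement of bound radioligand.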
By IC50 is commonly meant the concentration that inhibits the measured activity by half. With `CC[C@@H](NC(=O)N1C[C@H](OC(C)=O)C[C@@H]1c1nnc(C)n1Cc1ccc(Cl)cc1)c1ccc(C)o1` [Compound 503], the IC50 is 500 to 5000 nM.

For `Cc1nnc([C@H]2CCCN2C(=O)Cc2ccc(F)c(C(F)(F)F)c2)n1Cc1ccc(Cl)cc1` [Compound 504], the IC50 was in the range of 50 to 500 nM.

`Cc1nnc([C@H]2CCCN2C(=O)Cc2cccc(C(F)(F)F)c2F)n1Cc1ccc(Cl)cc1` [Compound 505]: the IC50 lay in the range of 50 to 500 nM.

Consider `Cc1nnc([C@H]2CC(=O)CN2C(=O)N[C@H]2CCOc3cc(C(F)(F)F)ccc32)n1Cc1ccc(Cl)cc1` [Compound 506], for which the IC50 was less than 50 nM.

In the case of `Cc1nnc([C@H]2CCCN2C(=O)Cc2ccc(Cl)cc2F)n1Cc1ccc(Cl)cc1` [Compound 507], the IC50 was in the range of 50 to 500 nM.

On to `Cc1nnc([C@H]2CCCN2C(=O)C(C)c2cccc(Cl)c2)n1Cc1ccc(Cl)cc1` (stereo partly drawn) [Compound 508], for which the IC50 is 50 to 500 nM.

Regarding `Cc1nnc([C@H]2CCCN2C(=O)Cc2cc(F)cc(C(F)(F)F)c2)n1Cc1ccc(Cl)cc1` [Compound 509], the IC50 lay in the range of 50 to 500 nM.

As for `Cc1nnc([C@H]2CCCN2C(=O)Cc2cc(C(F)(F)F)ccc2F)n1Cc1ccc(Cl)cc1` [Compound 510], the IC50 was less than 50 nM.

For `Cc1nnc([C@H]2CCCN2C(=O)Cc2cc(C(F)(F)F)ccc2Cl)n1Cc1ccc(Cl)cc1` [Compound 511], the 50% inhibitory concentration (IC50) is less than 50 nM.

Regarding `Cc1nnc([C@H]2CCCN2C(=O)N[C@H](C)c2nc3ccccc3o2)n1Cc1ccc(Cl)cc1` [Compound 513], the IC50 is less than 50 nM.

As for `Cc1nnc([C@H]2CCCN2C(=O)N[C@@H](C)c2nc3ccccc3o2)n1Cc1ccc(Cl)cc1` [Compound 514], the IC50 was in the range of 50 to 500 nM.

For the compound `Cc1nnc([C@H]2CCCN2C(=O)CC2CCOc3cc(C(F)(F)F)ccc32)n1Cc1ccc(Cl)cc1` (stereo partly drawn) [Compound 515], the IC50 was less than 50 nM.

With `CC[C@H](NC(=O)N1CCC[C@@H]1c1nnc(C)n1Cc1ccc(Cl)cc1)c1nc2ccccc2o1` [Compound 516], the half-inhibitory concentration (IC50) was 500 to 5000 nM.

Consider `Cc1nc(C(F)(F)F)ccc1NC(=O)N1CC(C)(O)C[C@@H]1c1nnc(C)n1Cc1ccc(Cl)cc1` (stereo partly drawn) [Compound 517], for which the IC50 lay within 50 to 500 nM.

In the case of `Cc1nnc([C@H]2CCCN2C(=O)Cc2ccc(Cl)nc2)n1Cc1ccc(Cl)cc1` [Compound 518], the half-maximal inhibitory concentration (IC50) is less than 50 nM.

Take `Cc1nnc([C@H]2CCCN2C(=O)Nc2ccc(C(F)(F)F)[n+]([O-])c2C)n1Cc1ccc(Cl)cc1` [Compound 519]: the IC50 was less than 50 nM.

In the case of `Cc1cc(C)[n+]([O-])c(C)c1NC(=O)N1CCC[C@@H]1c1nnc(C)n1Cc1ccc(Cl)cc1` [Compound 520], the IC50 is less than 50 nM.

Regarding `Cc1nc(C(F)(F)F)ccc1NC(=O)N1C[C@H](O)C[C@@H]1c1nnc(C)n1Cc1ccc(Cl)cc1` [Compound 521], the IC50 is less than 50 nM.

For the compound `Cc1nnc([C@H]2C[C@@H](O)CN2C(=O)N[C@H]2CCOc3cc(C#N)ccc32)n1Cc1ccc(Cl)cc1` [Compound 522], the half-inhibitory concentration (IC50) is less than 50 nM.

`Cc1nnc([C@H]2C[C@H](O)CN2C(=O)N[C@H]2CCOc3cc(C#N)ccc32)n1Cc1ccc(Cl)cc1` [Compound 523]: the 50% inhibitory concentration (IC50) is less than 50 nM.

For the compound `Cc1nnc([C@H]2CCCN2C(=O)Nc2ccc(C(F)(F)F)nc2Cl)n1Cc1ccc(Cl)cc1` [Compound 524], the IC50 is less than 50 nM.

In the case of `Cc1nnc([C@H]2CCCN2C(=O)Nc2ccc(C#N)c(C(F)(F)F)c2)n1Cc1ccc(Cl)cc1` [Compound 525], the IC50 is 50 to 500 nM.

As for `Cc1nnc([C@H]2CC(C)(O)CN2C(=O)N[C@H]2CCOc3cc(C(F)(F)F)ccc32)n1Cc1ccc(Cl)cc1` (stereo partly drawn) [Compound 526], the IC50 fell in the range of 50 to 500 nM.

In the case of `Cc1c(NC(=O)N2CCC[C@@H]2c2nnc(C)n2Cc2ccc(Cl)cc2)ccc(C#N)c1C(F)(F)F` [Compound 527], the IC50 was less than 50 nM.

As for `Cc1c(NC(=O)N2CCC[C@@H]2c2nnc(C)n2Cc2ccc(Cl)cc2)ccc(C#N)c1Cl` [Compound 528], the IC50 was less than 50 nM.

With `Cc1nnc([C@H]2CCCN2/C(=N/C#N)Nc2ccc(Cl)cc2F)n1Cc1ccc(Cl)cc1` [Compound 529], the IC50 is 50 to 500 nM.

Take `Cc1nnc([C@H]2CCCN2c2c(N[C@H]3CCOc4cc(C(F)(F)F)ccc43)c(=O)c2=O)n1Cc1ccc(Cl)cc1` [Compound 530]: the IC50 fell in the range of 50 to 500 nM.

Consider `Cc1nc(C(F)(F)F)ccc1NC(=O)N1CCC[C@@H]1c1nnc(C)n1Cc1ccc(F)cc1` [Compound 531], for which the IC50 fell in the range of 50 to 500 nM.

Take `Cc1nnc([C@H]2CC(C)(O)CN2C(=O)Nc2ccc(Cl)cc2F)n1Cc1ccc(Cl)cc1` (stereo partly drawn) [Compound 532]: the IC50 fell in the range of 50 to 500 nM.

For the compound `Cc1nnc([C@H]2CCCN2C(=O)C(C)c2cc(C(F)(F)F)ccc2Cl)n1Cc1ccc(Cl)cc1` (stereo partly drawn) [Compound 533], the IC50 lay within 50 to 500 nM.

For the compound `Cc1nnc([C@H]2CCCN2C(=O)Nc2ccc(Cl)cc2F)n1Cc1ccc(Br)cc1` [Compound 534], the 50% inhibitory concentration (IC50) fell in the range of 50 to 500 nM.

As for `Cc1nc(C(F)(F)F)ccc1NC(=O)N1CCC[C@@H]1c1nnc(C)n1Cc1ccc(Br)cc1` [Compound 535], the IC50 was less than 50 nM.

For the compound `Cc1nnc([C@H]2CCCN2c2c(Nc3ccc(Cl)cc3F)c(=O)c2=O)n1Cc1ccc(Cl)cc1` [Compound 536], the IC50 was 500 to 5000 nM.

`Cc1nnc([C@H]2CCCN2C(=O)N[C@H]2CCOc3cc(C(F)(F)F)ccc32)n1Cc1ccc(Br)cc1` [Compound 537]: the IC50 is less than 50 nM.

In the case of `Cc1nc(C(F)(F)F)ccc1NC(=O)N1CCC[C@@H]1c1nnc(C)n1Cc1cccc(Cl)c1` [Compound 538], the IC50 lay in the range of 500 to 5000 nM.

As for `Cc1nc(C(F)(F)F)ccc1N/C(=N\C#N)N1CCC[C@@H]1c1nnc(C)n1Cc1ccc(Cl)cc1` [Compound 539], the IC50 lay within 50 to 500 nM.

Consider `Cc1nnc([C@H]2CCCN2C(=O)N[C@H]2CCOc3cc(C(F)(F)F)ccc32)n1Cc1cccc(Br)c1` [Compound 540], for which the concentration for half-maximal inhibition (IC50) lay within 500 to 5000 nM.

As for `COC1C[C@H](c2nnc(C)n2Cc2ccc(Cl)cc2)N(C(=O)Nc2ccc(Cl)cc2F)C1` (stereo partly drawn) [Compound 541], the IC50 fell in the range of 50 to 500 nM.

In the case of `COC1C[C@H](c2nnc(C)n2Cc2ccc(Cl)cc2)N(C(=O)Nc2ccc(C(F)(F)F)nc2C)C1` (stereo partly drawn) [Compound 542], the IC50 fell in the range of 50 to 500 nM.

With `COC1C[C@H](c2nnc(C)n2Cc2ccc(Cl)cc2)N(C(=O)N[C@H]2CCOc3cc(C(F)(F)F)ccc32)C1` (stereo partly drawn) [Compound 543], the IC50 fell in the range of 50 to 500 nM.

Regarding `Cc1nc(C(F)(F)F)ccc1NC(=O)N1CC2CC2C1c1nnc(C)n1Cc1ccc(Cl)cc1` (stereo not drawn) [Compound 544], the IC50 lay within 50 to 500 nM.

For `Cc1nnc(C2C3CC3CN2C(=O)Nc2ccc(Cl)cc2F)n1Cc1ccc(Cl)cc1` (stereo not drawn) [Compound 545], the IC50 was in the range of 50 to 500 nM.

As for `Cc1nnc(C2C3CC3CN2C(=O)N[C@H]2CCOc3cc(C(F)(F)F)ccc32)n1Cc1ccc(Cl)cc1` (stereo partly drawn) [Compound 546], the concentration for half-maximal inhibition (IC50) was in the range of 50 to 500 nM.

On to `Cc1nnc(C2C3CC3CN2C(=O)NC(c2ccccc2)c2ccccc2)n1Cc1ccc(Cl)cc1` (stereo not drawn) [Compound 547], for which the IC50 was in the range of 50 to 500 nM.

`Cc1nc(C(F)(F)F)ccc1NC(=O)N1CCC[C@@H]1c1ncnn1Cc1ccc(Cl)cc1` [Compound 548]: the IC50 was in the range of 50 to 500 nM.

On to `Cc1nc(C(F)(F)F)ccc1NC(=O)N1CCC[C@@H]1c1nnc(Cl)n1Cc1ccc(Cl)cc1` [Compound 549], for which the IC50 was less than 50 nM.

In the case of `Cc1nnc([C@H]2CCCN2C(=O)Nc2ccc(-c3ncccn3)cc2)n1Cc1ccc(Cl)cc1` [Compound 550], the IC50 fell in the range of 500 to 5000 nM.

For the compound `Cc1nnc([C@H]2CCCN2C(=O)Nc2ccc(OC3CCOCC3)nc2)n1Cc1ccc(Cl)cc1` [Compound 551], the 50% inhibitory concentration (IC50) was 500 to 5000 nM.
